Patent US20210032257A1, “(E)-1-(4-(DIMETHYLAMINO)BUT-2-ENOYL)PYRROLIDIN-3-YL 4-((3-ISOPROPYL-5-METHYLPYRAZOLO[1,5-A]PYRIMIDIN-7-YL)AMINO)PIPERIDINE-1-CARBOXYLATE FOR INHIBITING CDK7” (Eli Lilly and Company, priority 2017, published 2021)

Assays:
Assay in all cases: Biomarker study proliferation (CellTiter-Glo)
Type in all cases: cell-based
HCC1806 = tested on: HCC1806
How it was run: (§1)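 Profiling across cell lines annotated for ARID1A, KMT2C, KMT2D or RB1 alterations used CellTiter-Glo viability after 7 days' treatment. Responses were classed insensitive, cytostatic or cytotoxic using IC50 1 μM and 70% inhibition cut-offs.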

MKN1 = tested on: MKN1
How it was run: as §1

RT112 = tested on: RT112
How it was run: as §1

AZ521 = tested on: AZ521
How it was run: as §1

HL60 = tested on: HL60
How it was run: as §1

CT26 = tested on: CT26
How it was run: as §1

OV90 = tested on: OV90
How it was run: as §1

HLE = tested on: HLE
How it was run: as §1

SW48 = tested on: SW48
How it was run: as §1

MOLT4 = tested on: MOLT4
How it was run: as §1

SW1271 = tested on: SW1271
How it was run: as §1

M14 = tested on: M14
How it was run: as §1

LS411N = tested on: LS411N
How it was run: as §1

LN229 = tested on: LN229
How it was run: as §1

HS294T = tested on: HS294T
How it was run: as §1

SNU398 = tested on: SNU398
How it was run: as §1

SW626 = tested on: SW626
How it was run: as §1

NCIH1703 = tested on: NCIH1703
How it was run: as §1

## Cc1cc(NC2CCN(C(=O)O[C@H]3CCN(C(=O)/C=C/CN(C)C)C3)CC2)n2ncc(C(C)C)c2n1 [Example 1, [(3S)-1-[(E)-4-(dimethylamino)but-2-enoyl]pyrrolidin-3-yl] 4-[(3-isopropyl-5-methyl-pyrazolo[1,5-a]pyrimidin-7-yl)amino]piperidine-1-carboxylate]
HCC1806; HCC1806, BREAST, 7 days
  Anti-proliferation effect % Inh.: 99%
  Anti-proliferation effect Outcome: Cytotoxic (cytotoxic (IC50<1 μM and % inhibition ≥70%))
HCC1806; Homo sapiens, HCC1806, 168 h, read-out: Anti-proliferation effect IC50
  IC50: 14 nM
MKN1; Homo sapiens, MKN-1, 168 h, read-out: Anti-proliferation effect IC50
  IC50: 23 nM
MKN1; MKN1, STOMACH, 7 days
  Anti-proliferation effect % Inh.: 80%
  Anti-proliferation effect Outcome: Cytotoxic (cytotoxic (IC50<1 μM and % inhibition ≥70%))
RT112; Homo sapiens, RT-112, 168 h, read-out: Anti-proliferation effect IC50
  IC50: 32 nM
RT112; RT112, URINARY, 7 days
  Anti-proliferation effect % Inh.: 87%
  Anti-proliferation effect Outcome: Cytotoxic (cytotoxic (IC50<1 μM and % inhibition ≥70%))
AZ521; AZ521, STOMACH, 7 days
  Anti-proliferation effect % Inh.: 76%
  Anti-proliferation effect Outcome: Cytotoxic (cytotoxic (IC50<1 μM and % inhibition ≥70%))
AZ521; Homo sapiens, AZ-521, 168 h, read-out: Anti-proliferation effect IC50
  IC50: 36 nM
HL60; HL60, BLOOD, 7 days
  Anti-proliferation effect % Inh.: 87%
  Anti-proliferation effect Outcome: Cytotoxic (cytotoxic (IC50<1 μM and % inhibition ≥70%))
HL60; Homo sapiens, HL-60, 168 h, read-out: Anti-proliferation effect IC50
  IC50: 45 nM
CT26; CT26, INTESTINE, 7 days
  Anti-proliferation effect % Inh.: −47%
  Anti-proliferation effect Outcome: Insensitive (insensitive (IC50≥1 μM))
CT26; Mus musculus, CT26, 168 h, read-out: Anti-proliferation effect IC50
  IC50: > 10000 nM
OV90; Homo sapiens, OV-90, 168 h, read-out: Anti-proliferation effect IC50
  IC50: 34 nM
OV90; OV90, OVARY, 7 days
  Anti-proliferation effect % Inh.: 61%
  Anti-proliferation effect Outcome: Cytostatic (cytostatic (IC50<1 μM and % inhibition <70%))
HLE; Homo sapiens, 168 h, read-out: Anti-proliferation effect IC50
  IC50: 30 nM
HLE; LIVER, 7 days
  Anti-proliferation effect % Inh.: 77%
  Anti-proliferation effect Outcome: Cytotoxic (cytotoxic (IC50<1 μM and % inhibition ≥70%))
SW48; Homo sapiens, SW48, 168 h, read-out: Anti-proliferation effect IC50
  IC50: 5 nM
SW48; SW48, INTESTINE, 7 days
  Anti-proliferation effect % Inh.: 89%
  Anti-proliferation effect Outcome: Cytotoxic (cytotoxic (IC50<1 μM and % inhibition ≥70%))
MOLT4; Homo sapiens, MOLT-4, 168 h, read-out: Anti-proliferation effect IC50
  IC50: 40 nM
MOLT4; MOLT4, BLOOD, 7 days
  Anti-proliferation effect % Inh.: 99%
  Anti-proliferation effect Outcome: Cytotoxic (cytotoxic (IC50<1 μM and % inhibition ≥70%))
SW1271; SW1271, 168 h, read-out: Anti-proliferation effect IC50
  IC50: 24 nM
SW1271; SW1271, LUNG, 7 days
  Anti-proliferation effect % Inh.: 67%
  Anti-proliferation effect Outcome: Cytostatic (cytostatic (IC50<1 μM and % inhibition <70%))
M14; Homo sapiens, M14, 168 h, read-out: Anti-proliferation effect IC50
  IC50: 32 nM
M14; M14, SKIN, 7 days
  Anti-proliferation effect % Inh.: 85%
  Anti-proliferation effect Outcome: Cytotoxic (cytotoxic (IC50<1 μM and % inhibition ≥70%))
LS411N; Homo sapiens, LS-411N, 168 h, read-out: Anti-proliferation effect IC50
  IC50: 1000 nM
LS411N; LS411N, INTESTINE, 7 days
  Anti-proliferation effect % Inh.: 45%
  Anti-proliferation effect Outcome: Insensitive (insensitive (IC50≥1 μM))
LN229; Homo sapiens, LN-229, 168 h, read-out: Anti-proliferation effect IC50
  IC50: 36 nM
LN229; LN229, CNS, 7 days
  Anti-proliferation effect % Inh.: 63%
  Anti-proliferation effect Outcome: Cytostatic (cytostatic (IC50<1 μM and % inhibition <70%))
HS294T; HS294T, SKIN, 7 days
  Anti-proliferation effect % Inh.: 84%
  Anti-proliferation effect Outcome: Cytotoxic (cytotoxic (IC50<1 μM and % inhibition ≥70%))
HS294T; Homo sapiens, Hs 294T, 168 h, read-out: Anti-proliferation effect IC50
  IC50: 20 nM
SNU398; Homo sapiens, SNU-398, 168 h, read-out: Anti-proliferation effect IC50
  IC50: 21 nM
SNU398; SNU398, LIVER, 7 days
  Anti-proliferation effect % Inh.: 85%
  Anti-proliferation effect Outcome: Cytotoxic (cytotoxic (IC50<1 μM and % inhibition ≥70%))
SW626; Homo sapiens, SW626, 168 h, read-out: Anti-proliferation effect IC50
  IC50: 1100 nM
SW626; SW626, 7 days
  Anti-proliferation effect % Inh.: 39%
  Anti-proliferation effect Outcome: Insensitive (insensitive (IC50≥1 μM))
NCIH1703; Homo sapiens, NCI-H1703, 168 h, read-out: Anti-proliferation effect IC50
  IC50: 40 nM
NCIH1703; NCIH1703, LUNG, 7 days
  Anti-proliferation effect % Inh.: 92%
  Anti-proliferation effect Outcome: Cytotoxic (cytotoxic (IC50<1 μM and % inhibition ≥70%))
